# Molecular target: T1, Yak1 (Candida albicans, UniProt A0A1D8PH81)
# T1 construct: full-length, C-terminal 6xHis-3xFlag tag kept; both YAK1 alleles tagged and overexpressed in C. albicans; native purification on anti-Flag gel, eluted with 3xFlag peptide
# Assay: ADP-Glo kinase assay with DYRKtide
# Format: biochemical
# Conditions: 10 µM ATP, 0.2 mg/mL DYRKtide, 2.5 mM MgCl2, HEPES-NaOH pH 7.2, 40 min; ATP site proposed by docking only
# T1 sequence (A0A1D8PH81 entry or part of it): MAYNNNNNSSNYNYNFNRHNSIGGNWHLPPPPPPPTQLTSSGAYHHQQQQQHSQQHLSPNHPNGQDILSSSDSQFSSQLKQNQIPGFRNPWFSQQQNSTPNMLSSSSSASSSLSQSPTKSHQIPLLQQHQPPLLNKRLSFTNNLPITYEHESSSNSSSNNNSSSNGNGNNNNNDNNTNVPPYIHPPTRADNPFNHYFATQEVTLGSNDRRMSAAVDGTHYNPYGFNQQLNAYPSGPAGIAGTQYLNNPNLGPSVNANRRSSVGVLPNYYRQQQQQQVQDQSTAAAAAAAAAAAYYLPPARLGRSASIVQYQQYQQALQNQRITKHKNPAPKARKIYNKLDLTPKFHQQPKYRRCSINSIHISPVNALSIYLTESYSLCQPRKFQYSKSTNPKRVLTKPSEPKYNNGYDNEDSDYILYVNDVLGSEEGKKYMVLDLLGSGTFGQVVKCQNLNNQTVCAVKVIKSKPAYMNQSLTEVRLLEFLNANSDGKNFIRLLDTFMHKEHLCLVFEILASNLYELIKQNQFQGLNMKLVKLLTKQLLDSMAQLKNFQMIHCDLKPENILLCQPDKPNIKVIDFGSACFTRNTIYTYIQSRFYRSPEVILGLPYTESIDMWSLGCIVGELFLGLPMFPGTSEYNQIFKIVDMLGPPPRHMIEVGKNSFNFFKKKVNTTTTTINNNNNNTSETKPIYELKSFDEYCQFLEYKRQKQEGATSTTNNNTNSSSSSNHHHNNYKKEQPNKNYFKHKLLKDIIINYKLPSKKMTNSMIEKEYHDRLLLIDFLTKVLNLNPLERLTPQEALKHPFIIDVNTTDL
row,SMILES,concentration-dependent inhibition
1,"CCOC(=O)c1nccc2c1[nH]c1ccccc12 [1-ECBC, 1-ethoxycarbonyl-β-carboline]","1-ECBC and harmine, a known β-carboline scaffold DYRK inhibitor, exhibited concentration-dependent inhibition of Yak1 activity"
2,COc1ccc2c(c1)[nH]c1c(C)nccc12 [harmine],1-ECBC and harmine inhibit Yak1 activity in a concentration-dependent manner

# From paper PMC8536679, “A small molecule produced by Lactobacillus species blocks Candida albicans filamentation by inhibiting a DYRK1-family kinase” (Nature Communications, 2021)
